Test results: US20260373103A1, “COMPOSITIONS AND METHODS FOR PREVENTING CARDIOMYOPATHY” (OHIO STATE INNOVATION FOUNDATION, priority 2022, published 2026)

Experiments:
[1] = system: hippocampus of the brain; assay: In vivo mitophagy in hippocampus of the brain; set-up: species or system mouse; details: 25 mg/kg/day i.p. for 5 days
Method: Fluorescent samples were examined with a Zeiss LSM 780 confocal microscope (Carl Zeiss MicroImaging). As previously described^2, fluorescence of mt-Keima was imaged in two channels via two sequential excitations (458 nm, green; 561 nm, red) and using a 570- to 695-nm emission range. Confocal experiments for parkin translocation were performed using a HeLa cell line stably expressing YFP-Parkin plated on 35 mm coverglass #1.5 chamber dishes (MatTek). These cells were treated for 2 h with DMSO as vehicle control or with A/O. YFP was imaged with a 514-nm excitation and 520- to 570-emission filters. Representative confocal images were processed using Imaris software by contrast linear stretch only. Calculation of mitophagy based on mt-Keima signal was performed using Zeiss ZEN software as previously described^2. The average of four images from each tissue sample was taken, and the values were normalized to the average value seen in the controls, assigned the value of one.
The mt-Keima mouse. […] The mice were lightly anesthetized with isoflurane and the ejection fraction, fractional shortening, and ventricular chamber dimensions were determined using 2-D-guided M mode images. Ejection fraction, fractional shortening, ventricular chamber dimensions, and left ventricular mass were calculated automatically using the VevoLAB program. […]

[2] = system: HeLa-Parkin and HeLa-Parkin cells expressing USP30; assay: Cell proliferation; type: cell-based; details: ST-539, 24 hours
[3] = system: HeLa-Parkin cells and HeLa-Parkin cells that express USP30; assay: Mitophagy in cells by mt-Keima fluorescence FACS; type: cell-based
Method: HeLa cells and mouse embryonic fibroblasts (MEFs) were grown in Dulbecco's minimum essential medium (DMEM) with 10% fetal bovine serum (FBS) supplemented with penicillin-streptomycin. HeLa Parkin, PINK1 KO cells, WT and MFN2 KO cells were previously described. Cells stably expressing USP30 were generated using lentiviral vectors of pLVX-Puro-Myc-USP30. The USP30 plasmid was obtained from Addgene. The plasmid was transferred into a lentiviral vector and viral particles were prepared by transiently transfecting HEK293T using standard methods. For the drug treatment experiments, cells were incubated in medium containing a mixture of 5 μM oligomycin and 5 μM antimycin A (A/O; see figures for treatment times). In 18 h treatment, A/O were used in combination with 10 μM quinolyl-valyl-O-methylaspartyl-[−2,6-difluorophenoxy]-methyl ketone (QVD), a broad-spectrum caspase inhibitor. ST51000539 (ST-539) was purchased from Tim Tec, Inc. Other chemicals were from Sigma-Aldrich (St. Louis, MO, USA). […]
We employed a sensitive fluorescence-activated cell sorting (FACS)-based method for detecting mitophagy using the pH-dependent fluorescent protein Keima. […] We exploited the mt-Keima probe and measured mitophagy in HeLa-Parkin cells and HeLa-Parkin cells that express USP30. […]

Q: For CC(C)(C)NS(=O)(=O)c1cccc2c(NC(=O)C(Cc3ccccc3)NC(=O)c3ccccc3)cccc12 (stereo not shown) [ST-539], which “mitophagic flux in hippocampus” value [1] is on record?
A: The value was “remains unchanged”.

Q: And the cell proliferation [2]?
A: The cell proliferation was “maintained”.

Q: What about the “A/O induced mitophagy (mt-Keima FACS)” value ([3]; ST-539 3 μg/ml, HeLa-Parkin cells expressing USP30) of the same molecule?
A: Its value is “restored A/O induced mitophagy”.

Q: What about the “mitophagy in the absence of mitochondrial stress” value ([3]; cellular studies, ST-539, no stress) of the same molecule?
A: Its value is “minimal change in mitophagy”.
